Test results reported in US6452005B1, “JAK-3 inhibitors for treating allergic disorders” (Parker Hughes Institute, priority 1999, dated 2002).
Where two headings read alike, the source gives them in different places.

Key:
[1] = target: T1, human JAK3 (Homo sapiens, UniProt P52333); assay: JAK3 kinase inhibition (Table 1 IC50, immune complex kinase assay); assay type: biochemical; details: for IC50: Table 1, measured inhibition values for JAK3 kinase
T1 construct: KL-2 EBV-transformed human lymphoblastoid B cells (native JAK3 kinase assays); endogenous in cells; host or cells: KL-2 EBV-transformed human lymphoblastoid B cell line
T1 sequence (P52333 1-1124): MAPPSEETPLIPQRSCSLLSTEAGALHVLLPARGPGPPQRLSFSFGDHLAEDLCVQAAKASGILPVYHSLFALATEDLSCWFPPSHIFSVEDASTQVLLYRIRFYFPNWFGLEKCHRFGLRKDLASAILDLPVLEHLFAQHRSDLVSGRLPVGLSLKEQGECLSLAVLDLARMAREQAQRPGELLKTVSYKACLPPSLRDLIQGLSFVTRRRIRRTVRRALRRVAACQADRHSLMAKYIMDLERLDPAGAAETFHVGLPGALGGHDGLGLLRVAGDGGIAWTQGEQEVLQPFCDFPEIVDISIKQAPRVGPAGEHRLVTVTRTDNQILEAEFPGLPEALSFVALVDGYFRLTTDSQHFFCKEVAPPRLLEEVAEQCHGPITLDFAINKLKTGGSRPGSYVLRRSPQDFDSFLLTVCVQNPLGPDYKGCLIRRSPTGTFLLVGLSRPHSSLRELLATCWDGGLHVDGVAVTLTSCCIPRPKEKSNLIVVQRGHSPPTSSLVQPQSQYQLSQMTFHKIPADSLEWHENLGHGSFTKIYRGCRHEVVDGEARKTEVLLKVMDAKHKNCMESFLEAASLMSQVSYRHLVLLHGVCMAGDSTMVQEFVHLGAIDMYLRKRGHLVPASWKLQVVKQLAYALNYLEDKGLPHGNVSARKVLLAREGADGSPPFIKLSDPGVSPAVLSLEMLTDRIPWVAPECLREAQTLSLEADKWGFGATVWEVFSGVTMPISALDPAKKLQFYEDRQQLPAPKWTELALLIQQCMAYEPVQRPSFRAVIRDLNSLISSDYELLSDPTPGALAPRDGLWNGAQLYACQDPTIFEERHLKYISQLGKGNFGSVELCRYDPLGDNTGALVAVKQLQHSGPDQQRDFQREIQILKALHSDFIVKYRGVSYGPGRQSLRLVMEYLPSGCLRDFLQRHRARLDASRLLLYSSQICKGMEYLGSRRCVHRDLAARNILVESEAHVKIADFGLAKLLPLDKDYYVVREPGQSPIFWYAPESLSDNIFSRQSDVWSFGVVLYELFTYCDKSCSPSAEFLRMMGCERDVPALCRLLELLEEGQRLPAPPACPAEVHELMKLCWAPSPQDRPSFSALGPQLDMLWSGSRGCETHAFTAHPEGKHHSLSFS
Method: Immune Complex Kinase Assays.
(§1) KL-2 EBV-transformed human lymphoblastoid B cells (native JAK3 kinase assays) or insect ovary cells (recombinant JAK3 kinase assays) were lysed with NP-40 lysis buffer (50 mM Tris, pH 8, 150 mM NaCl, 5 mM EDTA, 1% NP-40, 100 μM sodium orthovanadate, 100 μM sodium molybdate, 8 μg/ml aprotinin, 5 μg/ml leupeptin, and 500 μM PMSF) and centrifuged 10 minutes at 13000×g to remove insoluble material. Samples were immunoprecipitated with antisera prepared against JAK3. The antisera were diluted and immune complexes collected by incubation with 15 μl protein A Sepharose. After 4 washes with NP-40 lysis buffer, the protein A Sepharose beads were washed once in kinase buffer (20 mM MOPS, pH 7.0, 10 mM MgCl2) and resuspended in the same buffer. Reactions were initiated by the addition of 25 μCi γ[^32P] ATP (5000 Ci/mMole) and unlabeled ATP to a final concentration of 5 μM. Reactions were terminated by boiling for 4 min in SDS sample buffer. Samples were run on 9.5% SDS polyacrylamide gels and labeled proteins will be detected by autoradiography. Following electrophoresis, kinase gels were dried onto Whatman 3M filter paper and subjected to phosphoimaging on a Molecular Imager (Bio-Rad, Hercules, Calif.) as well as autoradiography on film. For each drug concentration, a kinase activity index (KA) was determined by comparing the kinase activity in phosphorimager units (PIU) to that of the baseline sample. In some experiments, cold kinase assays were performed, as described (Uckun et. al., 1998, Clin. Cancer Res., 4:901-912).

[2] = target: T1, human JAK3; assay: Immune complex kinase assay, JAK3 immunoprecipitated from KL2 EBV-transformed lymphoblastoid B cell line; assay type: biochemical; details: JAK3 immunoprecipitated from KL2 cells
Method: as §1, with “Following electrophoresis, kinase gels were dried onto Whatman 3M filter paper and subjected to phosphoimaging on a Molecular Imager (Bio-Rad, Hercules, Calif.) as well as autoradiography on film.” left out, “In some experiments, cold kinase assays were performed, as described (Uckun et. al., 1998, Clin. Cancer Res., 4:901-912).” left out

[3] = tested on: RBL-2H3 mast cells; assay: IgE/antigen-induced degranulation and mediator release; assay type: cell-based, rat; details: 1 h preincubation, DNP-BSA challenge; at ≧30 μM
Excerpt: Vehicle treated control RBL-2H3 cells released 45.1±3.1% of their hexosaminidase contents after DNP-BSA challenge. […] Vehicle treated control cells released 11.3±1.3 pg LTC4, and 160±33.0 pg TNFα/10^6 mast cells. The results on LTC4 and TNFα release are expressed as percent of maximum control release from vehicle treated control mast cells. The data points represent the mean±SEM values obtained from 3-6 independent experiments. […] *P<0.05 and **P<0.0001 compared to control as determined by Student's t test.
Supernatants were removed and saved.

[4] = tested on: RBL-2H3 mast cells; assay: IgE/antigen-induced activation (cell spreading, microtubule organization) by confocal microscopy; assay type: cell-based, rat; details: 30 μM, two hour incubation
Method: RBL-2H3 cells were cultured overnight on 22×22 mm coverslips at a cell density of 0.01×10^6/ml with […] DNP-IgE. Sensitized RBL-2H3 cells were then treated with 30 μM WHI-P131, vehicle, or control compounds WHI-P258 and WHI-P112 prior to challenge with DNP-BSA, as described in the legend of FIG. 4. After stimulation with DNP-BSA for 1 hour, cells were fixed in cold methanol for 15 minutes followed by permeabilization with PBS containing 0.1% Triton X-100. […] After washing 3 times with PBS-0.1% Triton X-100, cells were incubated with fluorescein labeled secondary antibody (Zymed, San Francisco, Calif.) for another 40 minutes. Cells were washed three times to remove unbound antibody. DNA labeling was performed by incubation of coverslips with toto-3 (Molecular Probes, Eugene, Oreg.) for 10 minutes. Excessive dye was washed with PBS-0.1% Triton X-100. Cells were visualized under MRC 1024 Laser Scanning Microscope after mounting with Vectashield (Vector laboratories, Inc, Burlingame, Calif.), as previously reported.
Confocol Microscopy: Staining of mast cells with primary and secondary antibodies followed by confocal laser scanning microscopy was performed as previously described in detail (Uckun et. al., 1998, Clin. Cancer Res., 4:901-912). After staining with appropriate primary and secondary antibodies, cells were washed three times to remove unbound antibody. DNA labeling was performed by incubation of coverslips with toto-3 (Molecular Probes, Eugene, Oreg.) for 10 min. Excessive dye was washed with PBS-0.1% triton X-100. Cells were visualized under MRC 1024 Laser Scanning Microscope after mounting with Vectashield (Vector laboratories, Inc, Burlingame, Calif.).
In a systematic effort aimed at elucidating the biologic consequences of JAK3 inhibition in mast cells, we first sought to determine if the JAK3 inhibitor WHI-P131 could prevent the IgE receptor/FcεRI-mediated activation of mast cells. Since the IgE receptor/FcεRI-mediated activation of mast cells results in a distinct morphologic transformation with marked cell spreading due to membrane ruffling, microtubule formation and actin polymerization (Apgar, 1997), we evaluated the effects of WHI-P131 on the activation-associated transformation of shape and surface topography of RBL-2H3 mast cells using confocal laser scanning microscopy (Ghosh et. al., 1998).

[5] = tested on: JAK3-dependent STAT activation; assay: EMSA, IL-2 triggered STAT activation in 32Dc11/IL2Rβ cells; assay type: cell-based; details: 10 μg/ml, 32Dc11/IL2Rβ cells
Method: Electrophoretic Mobility Shift Assays (EMSAs). EMSAs were performed to examine the effects of dimethoxyquinazoline compounds on cytokine-induced STAT activation (Goodman et. al., 1998). […] Cells were collected after 15 minutes and resuspended in lysis buffer (100 mM Tris-HCl pH 8.0, 0.5% NP-40, 10% glycerol, […], 0.1 mM NaVO3, 50 mM NaF, 150 mM NaCl, 1 mM DTT, 3 μg/ml Aprotinin, 2 μg/ml Pepstatin A, 1 μg/ml Leupeptin and 0.2 mM PMSF). Lysates were precleared by centrifugation for 30 min. Cell extracts (approximately 10 μg) were incubated with 2 μg of poly(dI-dC) for 30 minutes, followed by a 30 minutes incubation with 1ng of poly. nucleotide kinase-^32P labeled double stranded DNA oligonucleotide representing the IRF-1 STAT DNA binding sequence (Santa Cruz Biotechnology, Santa Cruz, Calif.). Samples were resolved by non-denaturing PAGE and visualized by autoradiography.

[6] = tested on: mast cell; details: cited from earlier work

In the case of `COc1cc2ncnc(Nc3cccc(Br)c3)c2cc1OC` [WHI-P79, 4-(3′-Bromophenyl)-amino-6,7-dimethoxyquinazoline], the IC50 [1] is reported as > 300 µM.

In the case of `COc1cc2ncnc(Nc3cc(Br)c(O)c(Br)c3)c2cc1OC` [WHI-P97, 4-(3′,5′-Dibromo-4′-hydroxylphenyl)-amino-6,7-dimethoxyquinazoline], the IC50 [2] is reported as 11 µM and the IC50 [1] is reported as 11 µM.

With `COc1cc2ncnc(Nc3ccc(C)c(Br)c3)c2cc1OC` [WHI-P111, 4-(3′-Bromo-4-methylphenyl)-amino-6,7-dimethoxyquinazoline] the LTC4 release [3] was “did not inhibit”, the TNFα release [3] was “did not inhibit” and the “β-hexosaminidase release (degranulation)” value [3] was “did not inhibit”. The “JAK3 inhibitory activity (in words)” value [1] was “do not inhibit JAK3” and the IC50 [1] was > 300 µM.

In the case of `COc1cc2ncnc(Nc3cc(Br)ccc3Br)c2cc1OC` [WHI-P112, 4-(2′,5′-Dibromophenyl)-amino-6,7-dimethoxyquinazoline], the LTC4 release [3] is reported as “did not inhibit”, the TNFα release [3] is reported as “did not inhibit” and the “β-hexosaminidase release (degranulation)” value [3] is reported as “did not inhibit”. The “JAK3 inhibitory activity (in words)” value [1] was “do not inhibit JAK3”, the IC50 [1] was > 200 µM and the “JAK3 inhibitory activity (in words)” value ([1]; listed as WHI-112) was “does not inhibit JAK3”. For the same compound, the “IgE/antigen-induced mast cell activation (spreading and microtubule organization)” value [4] was “unable to produce any significant effects”.

With `COc1cc2ncnc(Nc3ccccc3O)c2cc1OC` [WHI-P132, 4-(2′-Hydroxylphenyl)-amino-6,7-dimethoxyquinazoline] the “JAK3-dependent STAT activation after stimulation with IL-2” value [5] was “not”, the “JAK3 inhibitory activity (in words)” value [1] was “inactive” and the IC50 [1] was > 300 µM.

For `COc1cc2ncnc(Nc3cccc(O)c3)c2cc1OC` [WHI-P180, 4-(3′-hydroxyphenyl)-amino-6,7-dimethoxyquinazoline], the IC50 [1] is given as 3 µM, the “potency relative to WHI-P258” value ([6]; IgE/antigen induced mast cell responses) is given as “much more potent” and the “mast cell degranulation (β-hexasaminidase release)” value ([6]; IgE/antigen induced) is given as “effectively inhibited”. For the same compound, the “secretion of newly synthesized mediators (LTC4 release)” value ([6]; IgE/antigen induced) was “effectively inhibited”.

For `COc1cc2ncnc(Nc3ccccc3)c2cc1OC` [WHI-P258, 4-(Phenyl)-amino-6,7-dimethoxyquinazoline], the “JAK3 inhibitory activity (in words)” value [1] was “lacks JAK3 inhibitory activity” and the IC50 [1] was > 300 µM.
